Structures are written as SMILES.

The values below come from patent US9828385B2, “Spiro-oxazolones” (Hoffmann-La Roche Inc., priority 2014, dated 2017).

This experiment deals with T1, human V1a receptor (Homo sapiens, UniProt P37288).
T1 construct: expressed in transfected cells; host or cells: HEK293 cells, transiently transfected; cell membranes
T1 sequence (P37288 whole entry): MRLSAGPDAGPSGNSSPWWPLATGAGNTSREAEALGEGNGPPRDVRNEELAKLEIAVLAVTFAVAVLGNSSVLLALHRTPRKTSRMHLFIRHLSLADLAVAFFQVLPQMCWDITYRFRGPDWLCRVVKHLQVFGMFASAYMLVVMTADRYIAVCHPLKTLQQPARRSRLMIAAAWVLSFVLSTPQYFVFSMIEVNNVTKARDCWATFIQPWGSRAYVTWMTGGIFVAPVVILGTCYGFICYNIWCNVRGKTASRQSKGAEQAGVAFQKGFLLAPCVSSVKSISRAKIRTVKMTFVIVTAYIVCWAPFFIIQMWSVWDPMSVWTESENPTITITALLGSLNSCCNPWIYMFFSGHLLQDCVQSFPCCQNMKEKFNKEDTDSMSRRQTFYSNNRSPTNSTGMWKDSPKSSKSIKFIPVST
The experiment can be described thus: human V1a receptor binding studies (3H-Vasopressin, SPA beads). To be noted: membranes of HEK293 cells transiently transfected with human V1a receptor, Ki by Cheng-Prussoff from IC50, read-out: pKi hV1a (converted). Here is the method: The human V1a receptor was cloned by RT-PCR from total human liver RNA. The coding sequence was subcloned in an expression vector after sequencing to confirm the identity of the amplified sequence. […] Cell membranes were prepared from HEK293 cells transiently transfected with the expression vector and grown in 20 liter fermenters with the following protocol.
50 g of cells are re-suspended in 30 ml freshly prepared ice cold Lysis buffer (50 mM HEPES, 1 mM EDTA, 10 mM MgCl2 adjusted to pH=7.4+complete cocktail of protease inhibitor (Roche Diagnostics)). Homogenized with Polytron for 1 min and sonicated on ice for 2×2 minutes at 80% intensity (Vibracell sonicator). The preparation is centrifuged 20 min at 500 g at 4° C., the pellet is discarded and the supernatant centrifuged 1 hour at 43′000 g at 4° C. (19′000 rpm). The pellet is re-suspended in 12.5 ml Lysis buffer+12.5 ml Sucrose 20% and homogenized using a Polytron for 1-2 min. The protein concentration is determined by the Bradford method and aliquots are stored at −80° C. until use. For binding studies 60 mg Yttrium silicate SPA beads (Amersham) are mixed with an aliquot of membrane in binding buffer (50 mM Tris, 120 mM NaCl, 5 mM KCl, 2 mM CaCl2, 10 mM MgCl2) for 15 minutes with mixing. 50 μl of bead/membrane mixture is then added to each well of a 96 well plate, followed by 50 μl of 4 nM 3H-Vasopressin (American Radiolabeled Chemicals). For total binding measurement 100 μl of binding buffer are added to the respective wells, for non-specific binding 100 μl of […] cold vasopressin and for compound testing 100 μl of a serial dilution of each compound in 2% DMSO. The plate is incubated 1 h at room temperature, centrifuged 1 min at 1000 g and counted on a Packard Top-Count. Non-specific binding counts are subtracted from each well and data is normalized to the maximum specific binding set at 100%. To calculate an IC 50 the curve is fitted using a non-linear regression model (XLfit) and the Ki is calculated using the Cheng-Prussoff equation.
Regarding `CC(C)(C)OC(=O)N1CCC2(CC1)OC(N1CCC3(CC1)OCc1ccccc13)=NC2=O` [Example 134, tert-Butyl 4-oxo-2-(1′H,3H-spiro[2-benzofuran-1,4′-piperidin]-1′-yl)-1-oxa-3,8-diazaspiro[4.5]dec-2-ene-8-carboxylate], the Ki was 0.158 µM.

Turning to `CC1(CC2CCCC2)OC(N2CCC3(CC2)OCc2ccccc23)=NC1=O` (single isomer, unassigned; (-)) [Example 78, (−)-5-(Cyclopentylmethyl)-5-methyl-2-(1′H,3H-spiro[2-benzofuran-1,4′-piperidin]-1′-yl)-1,3-oxazol-4(5H)-one], the Ki was 0.1 µM.

As for `O=C1N=C(N2CCC3(CC2)OCc2c(F)cccc23)OC1Cc1ccccc1` (centres unmarked) [Example 24, 5-Benzyl-2-(4-fluoro-1′H,3H-spiro[2-benzofuran-1,4′-piperidin]-1′-yl)-1,3-oxazol-4(5H)-one], the Ki is 0.00631 µM.

On to `CC1(C(O)c2ccccc2)OC(N2CCC3(CC2)OCc2ccccc23)=NC1=O` (centres unmarked) [Example 90, 5-[Hydroxy(phenyl)methyl]-5-methyl-2-(1′H,3H-spiro[2-benzofuran-1,4′-piperidin]-1′-yl)-1,3-oxazol-4(5H)-one], for which the Ki is 0.126 µM.

Take `CC1(Cc2ccc(Cl)nc2)OC(N2CCC3(CC2)OCc2ccccc23)=NC1=O` (single isomer, unassigned; (+)) [Example 84, (+)-5-[(6-Chloropyridin-3-yl)methyl]-5-methyl-2-(1′H,3H-spiro[2-benzofuran-1,4′-piperidin]-1′-yl)-1,3-oxazol-4(5H)-one]: the Ki is 0.501 µM.

`CC(c1ccccc1)C1(C)OC(N2CCC3(CC2)OCc2ccccc23)=NC1=O` (single isomer, unassigned; diastereomer a) [Example 106, 5-Methyl-5-(1-phenylethyl)-2-(1′H,3H-spiro[2-benzofuran-1,4′-piperidin]-1′-yl)-1,3-oxazol-4(5H)-one diastereomer a]: the Ki is 0.0158 µM.

As to `O=C1N=C(N2CCC3(CC2)OCc2ccccc23)OC1C(O)c1ccccc1` (single isomer, unassigned) [Example 39, 5-(Hydroxy(phenyl)methyl)-2-(1′H,3H-spiro[2-benzofuran-1,4′-piperidin]-1′-yl)-1,3-oxazol-4(5H)-one diastereomer b, enantiomer B], the Ki is 0.126 µM.

With `CC(C)(C)OC(=O)N1Cc2ccccc2CC2(C1)OC(N1CCC3(CC1)OCc1ccccc13)=NC2=O` (centres unmarked) [Example 137, tert-Butyl 4′-oxo-2′-(1′H,3H-spiro[2-benzofuran-1,4′-piperidin]-1′-yl)-1,5-dihydro-4′H-spiro[2-benzazepine-4,5′-[1,3]oxazole]-2(3H)-carboxylate], the Ki is 0.00158 µM.

`O=C1N=C(N2CCC3(CC2)OCc2ccccc23)O[C@@H]1Cc1ccccc1` [Example 18, (+)-(5R)-5-Benzyl-2-(1′H,3H-spiro[2-benzofuran-1,4′-piperidin]-1′-yl)-1,3-oxazol-4(5H)-one]: the Ki was 0.00158 µM.

As for `O=C1N=C(N2CCC3(CC2)OCc2ccccc23)OC12CCCOC2` (centres unmarked) [Example 125, 2-(1′H,3H-Spiro[2-benzofuran-1,4′-piperidin]-1′-yl)-1,7-dioxa-3-azaspiro[4.5]dec-2-en-4-one], the Ki is 0.2 µM.

With `O=C1OC2(CCN(C3=NC(=O)C(CC4CCCC4)O3)CC2)c2ccccc21` (single isomer, unassigned; enantiomer a) [Example 15, 1′-[5-(Cyclopentylmethyl)-4-oxo-4,5-dihydro-1,3-oxazol-2-yl]-3H-spiro[2-benzofuran-1,4′-piperidin]-3-one enantiomer A], the Ki is 0.00251 µM.

As to `O=C1N=C(N2CCC3(CC2)c2ccccc2CS3(=O)=O)OC1Cc1ccccc1` (centres unmarked) [Example 34, 5-Benzyl-2-(2,2-dioxido-1′H,3H-spiro[2-benzothiophene-1,4′-piperidin]-1′-yl)-1,3-oxazol-4(5H)-one], the Ki is 0.01 µM.

In the case of `O=C1N=C(N2CCC3(CC2)OCc2ccccc23)OC12CC=CC2` [Example 113, 2-(1′H,3H-Spiro[2-benzofuran-1,4′-piperidin]-1′-yl)-1-oxa-3-azaspiro[4.4]nona-2,7-dien-4-one], the Ki was 0.1 µM.

Turning to `CC1(CC2CCCOC2)OC(N2CCC3(CC2)OCc2ccccc23)=NC1=O` (single isomer, unassigned; diastereomer b) [Example 104, (+)-5-Methyl-2-(1′H,3H-spiro[2-benzofuran-1,4′-piperidin]-1′-yl)-5-(tetrahydro-2H-pyran-3-ylmethyl)-1,3-oxazol-4(5H)-one diastereomer b], the Ki is 0.0501 µM.

Consider `O=C1N=C(N2CCC3(CC2)OCc2ccccc23)OC12CCN(CC(F)F)CC2` [Example 136, 8-(2,2-Difluoroethyl)-2-(1′H,3H-spiro[2-benzofuran-1,4′-piperidin]-1′-yl)-1-oxa-3,8-diazaspiro[4.5]dec-2-en-4-one], for which the Ki was 0.316 µM.

Turning to `CC1(Cc2ccc(Cl)cc2)OC(N2CCC3(CC2)OC(=O)c2ccccc23)=NC1=O` (single isomer, unassigned; enantiomer a) [Example 80, 1′-[5-(4-Chlorobenzyl)-5-methyl-4-oxo-4,5-dihydro-1,3-oxazol-2-yl]-3H-spiro[2-benzofuran-1,4′-piperidin]-3-one enantiomer A], the Ki was 0.02 µM.

Consider `C=CCC1(CC(=C)C(=O)OCC)OC(N2CCC3(CC2)OCc2ccccc23)=NC1=O` (centres unmarked) [Example 61, Ethyl 2-{[4-oxo-5-(prop-2-en-1-yl)-2-(1′H,3H-spiro[2-benzofuran-1,4′-piperidin]-1′-yl)-4,5-dihydro-1,3-oxazol-5-yl]methyl}prop-2-enoate], for which the Ki is 0.794 µM.

For the compound `CN1Cc2ccccc2CC2(C1)OC(N1CCC3(CC1)OCc1ccccc13)=NC2=O` (centres unmarked) [Example 139, 2-Methyl-2′-(1′H,3H-spiro[2-benzofuran-1,4′-piperidin]-1′-yl)-1,2,3,5-tetrahydro-4′H-spiro[2-benzazepine-4,5′-[1,3]oxazol]-4′-one], the Ki is 0.00126 µM.

Consider `O=C1N=C(N2CCC3(CC2)OCc2ccccc23)OC1C(O)c1ccc(Cl)cc1` (single isomer, unassigned; diastereomer b) [Example 44, (−)-5-[(4-Chlorophenyl)(hydroxy)methyl]-2-(1′H,3H-spiro[2-benzofuran-1,4′-piperidin]-1′-yl)-1,3-oxazol-4(5H)-one diastereomer b], for which the Ki was 0.126 µM.

Regarding `O=C1N=C(N2CCC3(CC2)OCc2ccccc23)OC12CC1CCCCCC1C2` (centres unmarked) [Example 140, 2′-(1′H,3H-Spiro[2-benzofuran-1,4′-piperidin]-1′-yl)-3,3a,4,5,6,7,8,8a-octahydro-1H,4′H-spiro[azulene-2,5′-[1,3]oxazol]-4′-one], the Ki was 0.000631 µM.

On to `O=C1OC2(CCN(C3=NC(=O)C(Cc4ccccc4)O3)CC2)c2cccc(F)c21` (centres unmarked) [Example 30, 1′-(5-Benzyl-4-oxo-4,5-dihydro-1,3-oxazol-2-yl)-4-fluoro-3H-spiro[2-benzofuran-1,4′-piperidin]-3-one], for which the Ki was 0.2 µM.

Consider `C=CCC1(CC(=C)C(F)(F)F)OC(N2CCC3(CC2)OCc2ccccc23)=NC1=O` (centres unmarked) [Example 60, 5-(Prop-2-en-1-yl)-2-(1′H,3H-spiro[2-benzofuran-1,4′-piperidin]-1′-yl)-5-[2-(trifluoromethyl)prop-2-en-1-yl]-1,3-oxazol-4(5H)-one], for which the Ki is 0.0251 µM.

With `O=C1C[C@@H]2CC3(C[C@@H]2C1)OC(N1CCC2(CC1)OCc1ccccc12)=NC3=O` (some centres unmarked) [Example 143, 2-(1′H,3H-Spiro[2-benzofuran-1,4′-piperidin]-1′-yl)-3a′,4′,6′,6a′-tetrahydro-1′H,4H-spiro[1,3-oxazole-5,2′-pentalene]-4,5′(3′H)-dione], the Ki was 0.1 µM.

In the case of `O=C1N=C(N2CCC3(CC2)OCc2ccccc23)OC12CCS(=O)(=O)CC2` [Example 133, 2-(1′H,3H-Spiro[2-benzofuran-1,4′-piperidin]-1′-yl)-1-oxa-8-thia-3-azaspiro[4.5]dec-2-en-4-one 8,8-dioxide], the Ki is 0.126 µM.

Regarding `O=C1OC2(CCN(C3=NC(=O)C(C(O)c4ccc(Cl)cc4)O3)CC2)c2ccccc21` (single isomer, unassigned) [Example 53, 1′-{-5-[(4-Chlorophenyl)(hydroxy)methyl]-4-oxo-4,5-dihydro-1,3-oxazol-2-yl}-3H-spiro[2-benzofuran-1,4′-piperidin]-3-one diastereomer b, enantiomer B], the Ki is 0.158 µM.

As for `CC(=O)OC(c1ccc(Cl)cc1)C1OC(N2CCC3(CC2)OCc2ccccc23)=NC1=O` (centres unmarked) [Example 41, (4-Chlorophenyl)[4-oxo-2-(1′H,3H-spiro[2-benzofuran-1,4′-piperidin]-1′-yl)-4,5-dihydro-1,3-oxazol-5-yl]methyl acetate], the Ki is 0.0316 µM.
